{"source": "patent US20250276962A1", "about": "“CONTRACEPTIVE COMPOUNDS AND METHODS” (Regents of the University of Minnesota, priority 2021, published 2025)", "key": {"[1]": {"test": "Solubility in PBS at pH 7.4", "type": "physicochemical"}, "human liver fibroblast": {"system": "human liver fibroblast", "type": "cell-based", "from_the_text": "The results were negative."}, "male Sprague-Dawley rats": {"system": "male Sprague-Dawley rats", "test": "Testis histopathology after 14-day dosing, rat", "type": "in vivo", "settings": "male SD rats, daily doses for 14 days (25 mg/kg/day in FIG. 11)", "procedure": "(§1) 2 male Beagle dogs and 5 male SD rats were dosed with 25 mg/kg/day for 14 days. On Day 15, animals were euthanized to harvest organs for histopathology. Shown are representative images. See Example 19."}, "male Beagle dogs [2]": {"system": "male Beagle dogs", "test": "Testis histopathology after 14-day dosing, dog", "type": "in vivo", "settings": "daily doses for 14 days (25 mg/kg/day in FIG. 11)", "procedure": "as §1"}, "Single dose PK, mouse": {"test": "Single dose PK, mouse", "type": "in vivo", "from_the_text": "Single dose pharmacokinetics (PK) studies at therapeutic dose levels: Presented are area under the curve (AUC) values to better compare exposure levels between species.\n[…]. […] This value serves as the basis to calculate multiples over efficacy across species."}, "Single dose PK, marmoset": {"test": "Single dose PK, marmoset", "type": "in vivo", "settings": "male, monkey, plasma, Marmoset 5 mg/kg", "procedure": "(§2) NHP studies: Three young adult male marmosets received a single 5 mg/kg dose of the compound of Example land the compound of 3 sexually mature male cynomolgus macaques received a single dose of 0.5, 1, 5 and 10 mg/kg."}, "[3]": {"test": "Single dose PK, cynomolgus macaque", "type": "in vivo", "procedure": "as §2"}, "[4]": {"test": "Repeat dose PK (14 days), rat", "type": "in vivo", "settings": "male, Sprague-Dawley, plasma, oral, Day 14, read-out: AUC0-48"}, "[5]": {"test": "Repeat dose PK (14 days), dog", "type": "in vivo", "settings": "male, Beagle, plasma, oral, Day 14", "procedure": "[…]. In this study, AUC0-inf was measured."}, "[6]": {"test": "Solubility in saline and 50% carbitol", "type": "physicochemical"}, "48 potential off-targets": {"system": "48 potential off-targets", "test": "Off-target screening, agonist and antagonist activity against 48 potential off-targets", "settings": "10 uM; against 39 of 48 targets (including glucocorticoid and androgen receptors)"}, "[7]": {"molecular_target": "acetylcholinesterase (AChE) (Homo sapiens, UniProt P22303)", "sequence (P22303 32-614, species assumed)": "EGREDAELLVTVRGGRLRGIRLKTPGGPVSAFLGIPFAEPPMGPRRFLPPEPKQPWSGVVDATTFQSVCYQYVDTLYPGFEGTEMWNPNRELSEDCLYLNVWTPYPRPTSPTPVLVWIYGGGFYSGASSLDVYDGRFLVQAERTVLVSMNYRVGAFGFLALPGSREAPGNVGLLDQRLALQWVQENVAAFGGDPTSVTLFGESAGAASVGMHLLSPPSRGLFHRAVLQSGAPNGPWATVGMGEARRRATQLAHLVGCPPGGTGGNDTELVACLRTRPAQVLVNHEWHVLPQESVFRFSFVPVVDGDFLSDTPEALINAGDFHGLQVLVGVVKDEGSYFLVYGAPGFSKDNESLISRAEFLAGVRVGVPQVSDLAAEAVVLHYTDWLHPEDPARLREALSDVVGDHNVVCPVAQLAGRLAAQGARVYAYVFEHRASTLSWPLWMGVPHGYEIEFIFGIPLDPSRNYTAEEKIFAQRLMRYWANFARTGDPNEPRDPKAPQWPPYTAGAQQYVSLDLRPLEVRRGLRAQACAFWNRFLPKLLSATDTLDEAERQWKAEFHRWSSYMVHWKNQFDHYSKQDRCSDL", "test": "Off-target screening, AChE", "type": "biochemical"}, "[8]": {"molecular_target": "KVLQT(7.1)/mink (cardiac potassium ion channel) (Homo sapiens, UniProt P51787)", "sequence (P51787 whole entry)": "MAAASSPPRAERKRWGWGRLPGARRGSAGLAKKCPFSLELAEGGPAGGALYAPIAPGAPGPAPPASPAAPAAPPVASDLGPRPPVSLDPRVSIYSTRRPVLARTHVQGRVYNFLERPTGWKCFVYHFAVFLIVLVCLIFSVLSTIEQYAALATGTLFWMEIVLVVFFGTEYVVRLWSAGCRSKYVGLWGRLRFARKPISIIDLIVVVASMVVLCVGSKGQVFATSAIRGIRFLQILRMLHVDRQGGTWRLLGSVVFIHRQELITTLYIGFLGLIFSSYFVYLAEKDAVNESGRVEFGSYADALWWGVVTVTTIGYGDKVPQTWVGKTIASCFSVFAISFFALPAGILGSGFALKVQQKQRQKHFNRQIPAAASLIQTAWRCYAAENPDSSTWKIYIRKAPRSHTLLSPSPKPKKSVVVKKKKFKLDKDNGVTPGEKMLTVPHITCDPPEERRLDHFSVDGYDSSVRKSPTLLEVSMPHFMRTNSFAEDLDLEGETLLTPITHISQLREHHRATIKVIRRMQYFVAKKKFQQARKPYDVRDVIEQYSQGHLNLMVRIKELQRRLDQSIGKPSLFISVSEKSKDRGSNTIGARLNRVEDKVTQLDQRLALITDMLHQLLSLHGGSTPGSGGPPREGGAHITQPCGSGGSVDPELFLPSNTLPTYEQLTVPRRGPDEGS", "test": "Off-target screening, KVLQT(7.1)/mink", "type": "cell-based"}, "KCNQ1": {"system": "KCNQ1", "test": "in vitro", "type": "cell-based"}, "[9]": {"molecular_target": "cannabinoid receptor 2 (CB2) (Homo sapiens, UniProt P34972)", "sequence (P34972 whole entry, species assumed)": "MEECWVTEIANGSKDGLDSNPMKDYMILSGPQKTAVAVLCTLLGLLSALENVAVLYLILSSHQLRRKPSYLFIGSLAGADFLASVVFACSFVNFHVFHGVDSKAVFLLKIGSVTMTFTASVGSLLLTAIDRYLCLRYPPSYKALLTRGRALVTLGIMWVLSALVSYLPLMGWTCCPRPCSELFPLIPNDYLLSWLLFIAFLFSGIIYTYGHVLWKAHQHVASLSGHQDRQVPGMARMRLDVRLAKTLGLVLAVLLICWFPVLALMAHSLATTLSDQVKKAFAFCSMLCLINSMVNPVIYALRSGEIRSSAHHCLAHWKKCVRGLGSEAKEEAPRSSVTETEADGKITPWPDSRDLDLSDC", "test": "Off-target screening, CB2", "type": "cell-based"}, "[10]": {"molecular_target": "monoamine oxidase A (MAO-A) (Homo sapiens, UniProt P21397)", "sequence (P21397 whole entry, species assumed)": "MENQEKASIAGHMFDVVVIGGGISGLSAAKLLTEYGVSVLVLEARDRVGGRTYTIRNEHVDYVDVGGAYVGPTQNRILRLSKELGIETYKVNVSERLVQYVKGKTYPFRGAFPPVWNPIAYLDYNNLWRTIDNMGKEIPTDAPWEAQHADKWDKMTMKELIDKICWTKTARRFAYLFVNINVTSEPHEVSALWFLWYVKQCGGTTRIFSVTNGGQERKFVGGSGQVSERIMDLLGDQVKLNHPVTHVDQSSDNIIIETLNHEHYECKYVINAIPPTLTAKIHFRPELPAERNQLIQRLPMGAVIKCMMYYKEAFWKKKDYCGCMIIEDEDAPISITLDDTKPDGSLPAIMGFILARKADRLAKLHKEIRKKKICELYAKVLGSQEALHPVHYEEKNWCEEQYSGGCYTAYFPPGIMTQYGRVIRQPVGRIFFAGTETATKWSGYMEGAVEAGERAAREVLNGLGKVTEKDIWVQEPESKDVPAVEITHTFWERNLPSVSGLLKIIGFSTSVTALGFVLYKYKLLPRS", "test": "Off-target screening, MAO-A", "type": "biochemical"}, "cyclooxygenase 1 (COX1)": {"molecular_target": "cyclooxygenase 1 (COX1) (Homo sapiens, UniProt P23219)", "sequence (P23219 24-599, species assumed)": "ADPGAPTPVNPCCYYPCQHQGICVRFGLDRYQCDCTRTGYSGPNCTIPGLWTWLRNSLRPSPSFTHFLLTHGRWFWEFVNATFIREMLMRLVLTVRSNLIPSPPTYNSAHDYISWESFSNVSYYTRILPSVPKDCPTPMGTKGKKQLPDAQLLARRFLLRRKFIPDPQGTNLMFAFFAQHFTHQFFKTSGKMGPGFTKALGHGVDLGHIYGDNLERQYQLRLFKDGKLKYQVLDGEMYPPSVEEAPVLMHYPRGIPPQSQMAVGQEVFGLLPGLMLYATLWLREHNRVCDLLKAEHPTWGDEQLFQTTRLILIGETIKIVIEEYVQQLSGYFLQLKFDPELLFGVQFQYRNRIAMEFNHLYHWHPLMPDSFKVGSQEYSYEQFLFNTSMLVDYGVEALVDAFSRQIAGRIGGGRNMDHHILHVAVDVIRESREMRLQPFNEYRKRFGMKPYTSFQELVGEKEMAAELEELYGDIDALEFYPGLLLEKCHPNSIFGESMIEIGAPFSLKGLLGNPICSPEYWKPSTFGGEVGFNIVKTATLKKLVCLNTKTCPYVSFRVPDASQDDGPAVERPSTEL", "test": "Off-target screening, COX1", "type": "biochemical"}, "[11]": {"molecular_target": "cannabinoid receptor 1 (CB1) (Homo sapiens, UniProt P21554)", "sequence (P21554 whole entry, species assumed)": "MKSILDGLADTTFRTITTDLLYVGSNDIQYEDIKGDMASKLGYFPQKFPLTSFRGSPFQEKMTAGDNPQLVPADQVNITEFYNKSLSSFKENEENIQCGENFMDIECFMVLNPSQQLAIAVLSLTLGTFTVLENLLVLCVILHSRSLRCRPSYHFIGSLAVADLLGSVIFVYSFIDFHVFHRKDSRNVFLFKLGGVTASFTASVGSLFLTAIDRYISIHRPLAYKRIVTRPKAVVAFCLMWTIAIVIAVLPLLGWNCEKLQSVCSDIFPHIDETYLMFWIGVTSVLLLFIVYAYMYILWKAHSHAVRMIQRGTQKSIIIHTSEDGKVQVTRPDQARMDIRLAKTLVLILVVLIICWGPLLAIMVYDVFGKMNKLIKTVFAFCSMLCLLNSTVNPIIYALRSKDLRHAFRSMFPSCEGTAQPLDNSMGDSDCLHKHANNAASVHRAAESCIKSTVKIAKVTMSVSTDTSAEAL", "test": "Off-target screening, CB1", "type": "cell-based"}, "[12]": {"test": "Stability in dog hepatocytes", "type": "in vitro ADME", "settings": "read-out: Half-life (T1/2) Hepatocytes (Phase I and Phase II metabolism)"}, "[13]": {"test": "Stability in monkey liver microsomes", "type": "in vitro ADME", "settings": "read-out: Half-life (T1/2) Liver microsomes (Phase I metabolism) (converted)"}, "male cynomolgus macaques": {"system": "male cynomolgus macaques", "settings": "cynomolgus monkey, in vivo"}, "[14]": {"test": "not given", "remark": "listed apart in the source"}, "male Beagle dogs [15]": {"system": "male Beagle dogs"}, "in vitro [16]": {"test": "in vitro", "settings": "human"}, "in vitro [17]": {"test": "in vitro", "settings": "mouse hepatocytes"}, "in vivo [18]": {"test": "in vivo", "settings": "male, Sprague-Dawley, rat, oral"}, "in vivo [19]": {"test": "in vivo", "settings": "male, Beagle, dog, oral"}, "physchem": {"test": "physchem", "settings": "pH 7.4"}, "[20]": {"test": "Single dose toxicity, mouse", "settings": "male, CD-1, mouse, in vivo, Maximum tolerated dose (MTD), male CD-1 mice, highest dose level tested"}, "[21]": {"test": "Distribution assay, plasma levels after oral dosing", "settings": "CD-1 mice, 10 mg/kg oral"}, "male CD-1 mice": {"system": "male CD-1 mice", "test": "Mouse studies with epididymal sperm count as readout", "settings": "10 mg/kg/day for 4 weeks"}}, "note": "pIC50: −log10 of the molar value. “Also recorded” adds a separate entry of the source. Read-outs that look alike come from different tables or passages of the source."}
{"smiles": "Cc1ccc(C2=CC(C)(C)Oc3ccc(-c4ccc(-c5ccc(C(=O)[O-])cc5)[nH]4)cc32)cc1.[Na+]", "note": "[Example 1, Sodium 4-(5-(2,2-dimethyl-4-(p-tolyl)-2H-chromen-6-yl)-1H-pyrrol-2-yl)benzoate]", "values": [{"measurement": "solubility", "setting": "[1]", "result": 78.57, "unit": "µM"}, {"measurement": "Human liver (lung) fibroblast assay result", "setting": "human liver fibroblast", "result": "negative"}, {"measurement": "Human liver (lung) fibroblast assay result", "setting": "human liver fibroblast; human", "result": "The compound of Example 1 showed no cytopathic effects in HepG2 and human"}, {"measurement": "Testis histopathology", "setting": "male Sprague-Dawley rats", "result": "degeneration of the germinal epithelium; also recorded: impairs the germinal epithelium"}, {"measurement": "Testis histopathology", "setting": "male Beagle dogs [2]", "result": "degeneration of the germinal epithelium; also recorded: visible in all evaluated tubuli seminiferi contorti; also recorded: impairs the germinal epithelium"}, {"measurement": "AUC0-inf in plasma", "setting": "Single dose PK, mouse; male CD-1 mice, single 10 mg/kg dose", "result": "6,681 h*(ng/mL)"}, {"measurement": "AUC(0-inf)", "setting": "Single dose PK, mouse; male, CD-1, plasma, Mouse 10 mg/kg, single dose", "result": 6.68, "unit": "µg·h/mL"}, {"measurement": "AUC(0-t)", "setting": "Single dose PK, mouse; male, CD-1, plasma, Mouse 10 mg/kg, read-out: AUC0-48", "result": 6.58, "unit": "µg·h/mL"}, {"measurement": "AUC(0-inf)", "setting": "Single dose PK, marmoset", "result": 6.92, "unit": "µg·h/mL"}, {"measurement": "AUC(0-inf)", "setting": "[3]; Cyno 1 mg/kg", "result": "33,394 h * ng * mL^−1"}, {"measurement": "AUC(0-inf)", "setting": "[3]; Cyno 5 mg/kg", "result": "175,202 h * ng * mL^−1"}, {"measurement": "AUC(0-inf)", "setting": "[3]; Cyno 10 mg/kg", "result": "293,423 h * ng * mL^−1"}, {"measurement": "AUC(0-inf)", "setting": "[3]; male, cynomolgus monkey, plasma, Cyno 0.5 mg/kg, read-out: AUC0-inf", "result": 23.4, "unit": "µg·h/mL"}, {"measurement": "AUC(0-t)", "setting": "[4]; Rat 25 mg/kg/day", "result": 78.8, "unit": "µg·h/mL"}, {"measurement": "AUC(0-t)", "setting": "[4]; Rat 50 mg/kg/day", "result": 91.1, "unit": "µg·h/mL"}, {"measurement": "AUC(0-inf)", "setting": "[5]; Dog 25 mg/kg/day", "result": 752, "unit": "µg·h/mL"}, {"measurement": "AUC(0-inf)", "setting": "[5]; Dog 100 mg/kg/day", "result": 14100, "unit": "µg·h/mL"}, {"measurement": "solubility", "setting": "[6]; 50% carbitol [2-(2-ethoxyethoxy)ethanol], aqueous with cosolvent or surfactant or cyclodextrin, in 50% carbitol [2-(2-ethoxyethoxy)ethanol, read-out: Solubility", "result": "> 100", "unit": "mg/mL"}, {"measurement": "solubility", "setting": "[6]; saline, saline or isotonic, in saline, read-out: Solubility", "result": "≤ 100", "unit": "mg/mL"}, {"measurement": "solubility", "setting": "[6]; saline, saline or isotonic, saline, read-out: Solubility (saline)", "result": 2, "unit": "mg/mL"}, {"measurement": "Agonist or antagonist activity against off-targets", "setting": "48 potential off-targets", "result": "Example 1 had agonist or antagonist activity of <10% against 39 of them (including"}, {"measurement": "pIC50", "setting": "[7]", "result": "< 4.52"}, {"measurement": "inhibition at 10 µM", "setting": "[7]; 10 μM", "result": 10.2, "unit": "%"}, {"measurement": "inhibition at 10 µM", "setting": "[8]", "result": 14.9, "unit": "%"}, {"measurement": "inhibition at 10 µM", "setting": "KCNQ1", "result": 22.8, "unit": "%"}, {"measurement": "pIC50", "setting": "[9]", "result": 4.63}, {"measurement": "inhibition at 10 µM", "setting": "[9]; 10 μM", "result": 34.3, "unit": "%"}, {"measurement": "pIC50", "setting": "[10]", "result": 4.61}, {"measurement": "inhibition at 10 µM", "setting": "[10]; 10 μM", "result": 45.8, "unit": "%"}, {"measurement": "pIC50", "setting": "cyclooxygenase 1 (COX1)", "result": 5.85}, {"measurement": "inhibition at 10 µM", "setting": "cyclooxygenase 1 (COX1); read-out: Inhibition of COX1", "result": 78.9, "unit": "%"}, {"measurement": "pIC50", "setting": "[11]", "result": 5.74}, {"measurement": "inhibition at 10 µM", "setting": "[11]; 10 μM", "result": 90.5, "unit": "%"}, {"measurement": "half-life", "setting": "[12]", "result": "> 10", "unit": "h"}, {"measurement": "half-life", "setting": "[13]", "result": 23.1, "unit": "h"}, {"measurement": "Repeat dose observations (behaviour, body weight, CBC, clinical chemistry)", "setting": "male cynomolgus macaques", "result": "behaved normally and had no substantial changes in body weight, CBC parameters or clinical chemistry parameters"}, {"measurement": "Half-life (T1/2) Liver microsomes (Phase I metabolism)", "setting": "human", "result": 9.5, "unit": "h"}, {"measurement": "CLint (μL/min/mg protein)", "setting": "pooled human liver microsomes", "result": 2.43, "unit": "μL/min/mg protein"}, {"measurement": "T1/2", "setting": "pooled human liver microsomes", "result": 9.494, "unit": "h"}, {"measurement": "Half-life (T1/2) Hepatocytes (Phase I and Phase II metabolism)", "setting": "[14]; human", "result": 8.7, "unit": "h"}, {"measurement": "In vitro Clint (μL/min/10^6 cells)", "setting": "[14]; human hepatocytes", "result": 2.65, "unit": "μL/min/10^6 cells"}, {"measurement": "In vitro T1/2", "setting": "[14]; human hepatocytes", "result": 8.706, "unit": "h"}, {"measurement": "Tolerability", "setting": "male Beagle dogs [15]; dog, in vivo, 50 mg/kg/day", "result": "not tolerated"}, {"measurement": "Tolerability", "setting": "male Beagle dogs [15]; dog, in vivo, 100 mg/kg/day", "result": "one dog did not show any signs of toxicity"}, {"measurement": "Tolerability", "setting": "male Beagle dogs [15]; dog, in vivo, po, 25 mg/kg/day", "result": "tolerated well"}, {"measurement": "Tolerated dose on repeated dosing for 14 days", "setting": "male Beagle dogs [15]; dogs", "result": 25, "unit": "mg/kg"}, {"measurement": "Tolerability", "setting": "male Beagle dogs [15]; male, Beagle, dog, in vivo, 100 mg/kg/day, 14 days", "result": "The other dog lost weight as of Day 12 until termination"}, {"measurement": "Safety margin", "setting": "male Beagle dogs [15]; male, Beagle, dog, in vivo, 14 days", "result": "at least 10 ×"}, {"measurement": "CLint scaled", "setting": "in vitro [16]; microsomes", "result": 3.05, "unit": "mL/min/kg"}, {"measurement": "half-life", "setting": "in vitro [16]; pooled liver microsomes", "result": 9.5, "unit": "h"}, {"measurement": "CLint scaled", "setting": "in vitro [17]", "result": 56.5, "unit": "mL/min/kg"}, {"measurement": "MTD at 2 weeks", "setting": "in vivo [18]", "result": 50, "unit": "mg/kg"}, {"measurement": "MTD at 2 weeks", "setting": "in vivo [19]", "result": 25, "unit": "mg/kg"}, {"measurement": "logD", "setting": "physchem", "result": 3.5}, {"measurement": "MTD", "setting": "[20]", "result": "> 1000", "unit": "mg/kg"}, {"measurement": "Plasma level at 48 hours", "setting": "[21]", "result": 12.9, "unit": "nM"}, {"measurement": "Effect on sperm counts and recovery", "setting": "male CD-1 mice; 2 weeks recovery, 10 mg/kg/day", "result": "Sperm counts started to increase; also recorded: reversibly reduces sperm counts"}, {"measurement": "Epididymal sperm counts", "setting": "male CD-1 mice; 24 h after last dose", "result": "0.51±0.27 ×10^7"}, {"measurement": "Reduction of epididymal sperm counts", "setting": "male CD-1 mice; 24 h after last dose", "result": 90, "unit": "%"}]}
